{"source": "patent US6040331A", "about": "“Nerve cell protective agents” (Mochida Pharmaceutical Co., Ltd., priority 1996, dated 2000)", "key": {"[1]": {"tested_on": "cerebral ischemic animal models", "details": "in vivo; cited from earlier work"}, "[2]": {"tested_on": "pyramidal cells in the hippocampus CA1 region", "assay": "Effectiveness in gerbil model of delayed neuronal death (pyramidal cell count, 3 min ischemia)", "assay_type": "in vivo", "details": "carotid arteries 5 min before ischemia, ischemic control 58 ± 22, non-ischemic 249 ± 10, mean ± standard error, hydrochloride", "procedure": "(§1) The action of compounds to suppress the death of neurons in vivo was studied by the method of Murase et al., Neurosci. Lett., 149, 229, 1993 which was adapted from the method of Kirino et al., Brain Res., 239, 57, 1982. Specifically, the cervical part of a gerbil under anesthesia by halothane inhalation was incised along the median line to expose the carotid artery on both sides, which were occuluded with clips for 3 min and thereafter brought back to patency. After suturing the incised part, the anesthetization was turned off and the animal was brought back to keeping under normal condition. Seven days after loading of cerebral ischemia, the gerbil was anesthetized by administering pentobarbital, fixed by transcardiac formalin perfusion and had the brain isolated. A coronary slice including the fimbria hippocampi was prepared from the isolated brain and stained with Cresyl Violet. The pyramidal cells in the hippocampus CA1 region were counted under an optical microscope. Each test compound was administered through the carotid arteries 5 min before ischemia."}, "mice (ICR)": {"tested_on": "mice (ICR)", "assay": "Acute toxicity test", "assay_type": "in vivo, mouse", "details": "100 mg/kg, intraperitoneal, 7-day observation, 3 animals per group"}, "[3]": {"tested_on": "pyramidal cells in the hippocampus CA1 region", "assay": "Effectiveness in gerbil model of delayed neuronal death (damage score, 4 min ischemia)", "assay_type": "in vivo", "details": "carotid arteries 5 min before ischemia, score 0-4", "procedure": "as §1, with “Specifically,” for “The action of compounds to suppress the death of neurons in vivo was studied by the method of Murase et al., Neurosci. Lett., 149, 229, 1993 which was adapted from the method of Kirino et al., Brain Res., 239, 57, 1982. Specifically,”, “4” for “3”, “Three” for “Seven”, “examined” for “counted”, “microscope and the degree of damage was rated by the following scores: 0, no damage; 1, slight damage; 2, moderate damage; 3, significant damage; 4, total damage.” for “microscope.”"}, "hippocampus": {"tested_on": "hippocampus", "details": "Bode et al., cited from earlier work"}, "[4]": {"tested_on": "formalin induced pain reaction", "assay": "Effectiveness in formalin induced paw pain test", "assay_type": "in vivo, mouse", "details": "for Suppression of pain reaction, Second phase / Suppression of pain reaction, First phase: oral, 30 min before formalin; for Suppression of pain reaction, Second phase: from 10 min to 45 min; for Suppression of pain reaction, First phase: within 10 min after induction", "procedure": "The effectiveness of compounds in a formalin induced pain test was studied in accordance with the method of Shibata et al., Pain, 38, 347, 1989.\nSpecifically, the left hind paw of a mouse was injected subcutaneously with 25 μl of a 0.5% formalin solution and the duration of time for which the mouse licked and bit the treated foot starting just after the injection was measured with a stopwatch; the measured times were integrated for every 5 minutes and recorded. The formalin induction caused a characteristic biphase pain reaction; the pain recognized within 10 min after the induction was categorized as a first-phase pain reaction and the pain recognized from 10 min to 45 min as a second-phase reaction. The test compounds were administered orally 30 min before the injection of formalin. The percent suppression of the formalin induced pain reaction by each test compound was determined by the following formula:\n100×(PRcontrol-PRtest)/(PRcontrol) (%)\nwhere PRtest is the time (sec) of pain reaction in a group administered with both formalin and the test compound and PRcontrol is the time (sec) of pain reaction in a control group subjected to formalin induction."}, "cerebral infarction": {"tested_on": "cerebral infarction", "assay": "Effectiveness in rat model of permanent occlusion of middle cerebral artery", "assay_type": "in vivo", "details": "10 mg/kg, tail vein, 10 min after occlusion; 24 h; control 14.7 ± 0.8; mean ± standard error; ** p < 0.01 vs control group", "source_text": "The therapeutic effect of compounds against cerebral infarction was studied in accordance with the method of Tamura et al., J. Cereb. Blood Flow Metab., 1, 53, 1981.\nSpecifically, a hole was made transorbitally in part of the cranial bone of a rat under anesthesia by halothane inhalation to expose the origin of the middle cerebral artery. Then, using a bipolar coagulator, the middle cerebral arteries were burnt to coagulate for permanent occlusion. The operative site was sutured and after the anesthetization was turned off, the animal was brought back to keeping under normal condition. Twenty-four hours after loading of cerebral ischemia, the rat was decapitated and the brain was isolated. The isolated brain was cut at a predetermined site to prepare five coronary slices. The infarct area of each section was rendered visible by staining with 2,3,5-triphenyltetrazolium chloride (TTC) and quantitated with an image analyzer. A test compound was administered through the tail vein 10 min after the occlusion of the middle cerebral arteries and comparison was made with a control group administered with a solvent alone."}, "[5]": {"tested_on": "neurons isolated from the cerebrum", "assay": "Veratrine-induced neuronal death suppressing action (MTT)", "assay_type": "cell-based, embryonic day 16 rats", "details": "Rattus norvegicus, Neuron; veratrine 0.35 mM; MTT after 24 h; probit method; read-out: IC50 (50% suppression of veratrine-induced neuronal death)", "procedure": "The action of compounds to suppress the death of neurons induced by veratrine was evaluated in terms of their effectiveness in suppressing the neuronal death as induced by direct addition of veratrine. An experiment was run by a method adapted from the method of Powells et al., J. Pharmacol. Exp. Therapeutics, 255, 1117, 1987. Specifically, neurons were isolated from the cerebrum of embryonic day 16 rats in the usual manner, suspended in a MEM medium containing 10% fetal bovine serum, seeded onto a polylysine-coated culture plate at a density of 2.5×10^5 cells per square centimeter and cultivated at 37° C. in 95% air+5% CO2. Starting on the fifth day of cultivation, treatment was conducted with 10 μM of cytosine arabinoside for 2 days and the cultivation was continued until the 12th day, when a test was run as follows. The cells were treated with a buffer solution containing veratrine (0.35 mM) and a test compound, replaced in a serum-containing medium and cultivated for another 24 h. Subsequently, the number of viable cells was determined by calorimetric quantification using 3-(4,5-dimethylthiazol-2-yl)-2,5-diphenyltetrazolium bromide (MTT). The percent suppression of neuronal death by the test compound was determined by the following formula:\n(§2) 100×(ODtest-ODcontrol)/(ODnormal-ODcontrol) (%)\nwhere ODtest is the number of cells (absorbance) in the group of addition of veratrine+test compound, ODcontrol is the number of cells (absorbance) in a control group of addition of veratrine, and ODnormal is the number of cells (absorbance) in a control (normal) group without addition of veratrine.\nIn addition, IC50 values indicating the effectiveness in achieving 50% suppression of neuronal death were calculated by the probit method on the basis of the result from more than one concentration."}, "[6]": {"tested_on": "neurons isolated from the cerebrum", "assay": "Naturally occurring neuronal death suppressing action (serum-free cultivation, Crystal Violet)", "assay_type": "cell-based, embryonic day 16 rats", "details": "Rattus norvegicus, Neuron, 72 h; 1.0 μg/ml; serum-free, 3 days; read-out: Suppression of Naturally Occurring Neuronal Death", "procedure": "The action of compounds to suppress the naturally occurring death of neurons was evaluated in terms of their effectiveness in suppressing or inhibiting the naturally occurring death of neurons as induced by exposing cultured neurons to serum-free cultivation conditions. An experiment was run by a method adapted from the method of Shimojo et al., Neurosci. Lett., 151, 170, 1993. Specifically, neurons were isolated from the cerebrum of embryonic day 16 rats in the usual manner, suspended in a DMEM/F12 medium containing 1% fetal bovine serum, seeded onto a polylysine-coated culture plate at a density of 5×10^4 cells per square centimeter and cultivated at 37° C. in 95% air+5% CO2. After one day of culture, the medium was replaced with a serum-free medium containing a compound to be tested and the cultivation was continued for 3 more days. Subsequently, the cells were fixed with 1% glutaraldehyde and their number was determined by calorimetric quantification using Crystal Violet (Anal. Biochem., 182, 16-19, 1989). The percent suppression of neuronal death by the test compound was determined by the following formula:\nas §2\nwhere ODtest is the number of cells (absorbance) in the group of addition of test compound after serum removal, ODcontrol is the number of cells (absorbance) in a control group after serum removal, and ODnormal is the number of cells (absorbance) in a control (normal) group without serum removal."}, "[7]": {"details": "10 mg/kg, ** p < 0.01 vs ischemic control group"}}}
{"smiles": "Cc1ccc(-c2nc(C)c(CN3CCN(C(c4ccccc4)c4ccccc4)CC3)[nH]2)cc1", "note": "[lifarizine]", "values": [{"measurement": "effectiveness in cerebral ischemic animal models (in words)", "setting": "[1]", "result": "effective"}]}
{"smiles": "O=c1[nH]c2cc(-n3ccnc3)c([N+](=O)[O-])cc2[nH]c1=O", "note": "[YM90K]", "values": [{"measurement": "effectiveness in cerebral ischemic animal models (in words)", "setting": "[1]", "result": "effective"}]}
{"smiles": "O=C(O)[C@@H]1C[C@H](CP(=O)(O)O)CCN1", "note": "(relative stereo) [selphotel]", "values": [{"measurement": "effectiveness in cerebral ischemic animal models (in words)", "setting": "[1]", "result": "effective"}]}
{"smiles": "Cl.Fc1ccccc1-c1[nH]c2cccc3c2c1CCC3N1CCOCC1", "note": "(single isomer, unassigned; (+)) [Example 247, (+)-2-(2-fluorophenyl)-5-morpholino-1,3,4,5-tetrahydrobenz[cd]indole hydrochloride]", "values": [{"measurement": "Pyramidal cell count in hippocampus CA1", "setting": "[2]; 2.5 mg/kg", "result": "96 ± 31", "unit": "cells/mm"}, {"measurement": "Pyramidal cell count in hippocampus CA1", "setting": "[2]; [7]", "result": "83 ± 35", "unit": "cells/mm"}]}
{"smiles": "NC1CCc2c(-c3ccccc3)[nH]c3c(Cl)ccc1c23", "note": "(stereo not shown) [Example 86, 5-amino-8-chloro-2-phenyl-1,3,4,5-tetrahydrobenz[cd]indole]", "values": [{"measurement": "death (acute toxicity)", "setting": "mice (ICR)", "result": "no case of death was found"}, {"measurement": "Score of damage to hippocampus CA1", "setting": "[3]; 5 mg/kg, ischemic control 2.9 ± 0.3, mean ± standard error (Table 3-1)", "result": "1.8 ± 0.1"}]}
{"smiles": "CCCN(CCC)C1Cc2c[nH]c3ccc(OC)c(c23)C1", "note": "(stereo not shown) [BAY-R-1531]", "values": [{"measurement": "effect on damage to the hippocampus of gerbils after brain ischemia (in words)", "setting": "hippocampus; Stroke, 21, 1990", "result": "effective for damage to the hippocampus of gerbils after brain ischemia"}, {"measurement": "dose of protective effect relative to dose altering patterns of behavior (in words)", "setting": "hippocampus; serotonin-like action", "result": "the protective effect of the compound was only recognized at a by far higher dose than the one that caused altered patterns of behavior due to a serotonin-like action"}]}
{"smiles": "CN1CCN(c2ncc(-c3cc(Cl)cc(Cl)c3Cl)c(N)n2)CC1", "note": "[BW619C89]", "values": [{"measurement": "effectiveness in cerebral ischemic animal models (in words)", "setting": "[1]", "result": "effective"}]}
{"smiles": "C[C@]12N[C@H](Cc3ccccc31)c1ccccc12", "note": "[dizocilpine]", "values": [{"measurement": "effectiveness in cerebral ischemic animal models (in words)", "setting": "[1]", "result": "effective"}]}
{"smiles": "CC(C)=CCN1CCC2(C)c3cc(O)ccc3CC1C2C", "note": "(stereo not shown) [pentazocine, reference compound]", "values": [{"measurement": "suppression of the first-phase pain reaction", "setting": "[4]; 10 mg/kg, subcutaneous", "result": 61, "unit": "%"}, {"measurement": "suppression of the second-phase pain reaction", "setting": "[4]; 10 mg/kg, subcutaneous", "result": 40, "unit": "%"}]}
{"smiles": "Cl.Fc1ccccc1-c1[nH]c2cccc3c2c1CCC3N1CCOCC1", "note": "(single isomer, unassigned; (-)) [Example 248, (-)-2-(2-fluorophenyl)-5-morpholino-1,3,4,5-tetrahydrobenz[cd]indole hydrochloride]", "values": [{"measurement": "Pyramidal cell count in hippocampus CA1", "setting": "[2]; 2.5 mg/kg", "result": "87 ± 29", "unit": "cells/mm"}, {"measurement": "Pyramidal cell count in hippocampus CA1", "setting": "[2]; [7]", "result": "206 ± 14", "unit": "cells/mm"}]}
{"smiles": "NC1CCc2c(-c3ccccc3)[nH]c3cccc1c23", "note": "(stereo not shown) [Example 81, 5-amino-2-phenyl-1,3,4,5-tetrahydrobenz[cd]indole]", "values": [{"measurement": "death (acute toxicity)", "setting": "mice (ICR)", "result": "no case of death was found"}, {"measurement": "Weight of infarction", "setting": "cerebral infarction", "result": "9.3 ± 1.5", "unit": "%"}, {"measurement": "Score of damage to hippocampus CA1", "setting": "[3]; 10 mg/kg, ischemic control 2.9 ± 0.3, mean ± standard error (Table 3-1)", "result": "0.1 ± 0.1"}, {"measurement": "IC50", "setting": "[5]", "result": 3.2, "unit": "µg/mL"}, {"measurement": "inhibition at 1 µg/mL", "setting": "[6]", "result": 51, "unit": "%"}]}
{"smiles": "Cl.Cn1c(-c2ccccc2)c2c3c(cccc31)C(N1CCOCC1)CC2", "note": "(stereo not shown) [Example 237, 1-methyl-5-morpholino-2-phenyl-1,3,4,5-tetrahydrobenz[cd]indole hydrochloride]", "values": [{"measurement": "Suppression of pain reaction, Second phase", "setting": "[4]; 100 mg/kg", "result": 97, "unit": "%"}, {"measurement": "Suppression of pain reaction, First phase", "setting": "[4]; 100 mg/kg", "result": 63, "unit": "%"}]}
{"smiles": "Cl.Fc1ccccc1-c1[nH]c2cccc3c2c1CCC3N1CCOCC1", "note": "(stereo not shown) [Example 232, 2-(2-fluorophenyl)-5-morpholino-1,3,4,5-tetrahydrobenz[cd]indole hydrochloride]", "values": [{"measurement": "Suppression of pain reaction, Second phase", "setting": "[4]; 200 mg/kg", "result": 100, "unit": "%"}, {"measurement": "Suppression of pain reaction, First phase", "setting": "[4]; 200 mg/kg", "result": 51, "unit": "%"}, {"measurement": "Score of damage to hippocampus CA1", "setting": "[3]; 10 mg/kg, ischemic control 3.5 ± 0.4, mean ± standard error (Table 3-2)", "result": "2.5 ± 0.7"}]}
